How the values were obtained:
Head and Neck Cancer = assay: Clinical study of EPT with intralesional bleomycin for head and neck cancers; format: in vivo, humans; design: key to Response Status: Complete Response (CR): Disappearance of all evidence of tumor as determined by physical examination, and/or biopsy.; Partial Response (PR): 50% or greater reduction in tumor volume.; No Response (NR): less than 50% reduction in tumor volume
Description: All of the following patients were treated with bleomycin intratumoral injection and needle arrays of different diameters with six needles. The voltage was set to achieve a nominal electric field strength of 1300 V/cm (the needle array diameter was multiplied by 1300 to give the voltage the generator was set at). The pulse length was 100 μs.
The study was designed as a single center feasibility clinical study in which the efficacy of the EPT procedure in combination with intralesional bleomycin was compared to that for traditional surgery, radiation, and/or systemic chemotherapy. Approximately 50 study subjects were enrolled in the study. All study subjects were assessed prior to treatment by examination and biopsy. Postoperative assessment of study subjects was weekly for 4-6 weeks, and monthly thereafter for a total of 12 months. Approximately 8 to 12 weeks following therapy, a biopsy of the tumor site was performed. Use of CT or MRI scans was utilized in accordance to standard medical follow-up evaluation of HNC subjects.
Tumor evaluation includes measuring the tumor diameter (in centimeters) and estimating its volume (in cubic centimeters). Prior to intratumoral administration of bleomycin sulfate, the tumor site is anesthetized with 1% lidocaine (xylocaine) and 1:100,000 epinephrine. The concentration of bleomycin sulfate injected is 4 units per milliliter, up to a maximum dose of 5 units per tumor. If more than one tumor per subject is treated, a total of 20 units per subject should not be exceeded. The dose of bleomycin administered is to be 1 unit/cm^3 of calculated tumor volume. Approximately ten minutes subsequent to the injection of bleomycin sulfate, the applicator is placed on the tumor and electrical pulses initiated. Each application or an initiation of electrical pulses is referred to as a sequence. The use of EPT is not a contraindication to any subsequent palliative treatment required by the subject.
In this study, success was defined as significant tumor regression in a period of 16 weeks or less without major side effects seen with traditional therapy. There are three possible response outcomes:
Complete Response (CR): Disappearance of all evidence of tumor as determined by physical examination, and/or biopsy. • Partial Response (PR): 50% or greater reduction in tumor volume. • No Response (NR): less than 50% reduction in tumor volume.
If the tumor increases (25% tumor volume) in size, other therapy, if indicated, was instituted per subject's desire.

[1] = system: Cutaneous and Subcutaneous Cancer; assay: Clinical studies using bleomycin sulfate and EPT, cutaneous and subcutaneous cancer; format: in vivo, humans
Panc-3 = assay: EPT of Panc-3 with neocarcinostatin, pre- and post-pulse injection; format: in vivo, nude mice
From the text: The Panc-3 and NSCLC models were utilized with the drug neocarcinostatin (NCS) following the same procedures as outlined above. […] It was believed that due to the low isoelectric point of NCS, electrostatic interaction prevented the drug from entering the tumor cell. Therefore, the experiment was repeated by pulsing first and injecting NCS post-pulse.

[2] = Adenocarcinoma, 2 patients, 2 lesions, IT 2 to 8 Units
[3] = Squamous Cell, 7 patients, 7 lesions, IT 1 to 16 Units
[4] = enrollment start 01/20/95, Basal Cell, 18 patients, 54 lesions, IT 0.5 to 3 Units
[5] = enrollment start 01/20/95, Kaposi Sarcoma, 1 patient, 4 lesions, IT 1 to 2 Units
[6] = enrollment start 01/20/95, Met. Melanoma, 10 patients, 84 lesions, IT 0.2 to 2 Units
[7] = enrollment start 01/20/95, Squamous Cell, 1 patient, 1 lesion, IT 1.5 Units
[8] = enrollment start 01/20/95, Summary, 30 patients, 146 lesions
[9] = enrollment start 02/18/94, Basal Cell, 2 patients, 6 lesions, IV 22 to 23 Units
[10] = enrollment start 02/18/94, Met. Breast Adenocarcinoma, 1 patient, 2 lesions, IV 17 Units
[11] = enrollment start 02/18/94, Met. Melanoma, 3 patients, 10 lesions, IV 19 to 23 Units
[12] = enrollment start 08/01/96, Basal Cell, 7 patients, 8 lesions, IT 0.8 to 0.64 Units
[13] = enrollment start 08/01/96, Summary, 7 patients, 8 lesions

## bleomycin sulfate
Head and Neck Cancer; [2]
  Tumor Response CR %: 0%
  Tumor Response NR %: 100%
  Tumor Response PR %: 100%
Head and Neck Cancer; [3]
  Tumor Response CR %: 43%
  Tumor Response NR %: 29%
  Tumor Response PR %: 29%
Head and Neck Cancer; Subject 1/J-S, first response (week 2)
  Response Status: PR (Partial Response (PR): 50% or greater reduction in tumor volume.)
Head and Neck Cancer; Subject 1/J-S, second response (week 8)
  Response Status: CR
Head and Neck Cancer; Subject 1/J-S, to CR
  Time to Response (Week): 8 Week
Head and Neck Cancer; Subject 1/J-S, to PR
  Time to Response (Week): 2 Week
Head and Neck Cancer; Subject 2/G-C
  Response Status: PR (Partial Response (PR): 50% or greater reduction in tumor volume.)
  Time to Response (Week): 4 Week
Head and Neck Cancer; Subject 3/L-O
  Response Status: CR
  Time to Response (Week): 3 Week
Head and Neck Cancer; Subject 4/G-R, first response (week 4)
  Response Status: PR (Partial Response (PR): 50% or greater reduction in tumor volume.)
Head and Neck Cancer; Subject 4/G-R, second response (week 9)
  Response Status: CR
Head and Neck Cancer; Subject 4/G-R, to CR
  Time to Response (Week): 9 Week
Head and Neck Cancer; Subject 4/G-R, to PR
  Time to Response (Week): 4 Week
Head and Neck Cancer; Subject 5/R-H, segmented treatment
  Response Status: NR** (No Response (NR): less than 50% reduction in tumor volume.)
Head and Neck Cancer; Subject 6/C-B
  Response Status: PR (Partial Response (PR): 50% or greater reduction in tumor volume.)
  Time to Response (Week): 2 Week
Head and Neck Cancer; Subject 7/C-J, segmented treatment
  Response Status: NR** (No Response (NR): less than 50% reduction in tumor volume.)
Head and Neck Cancer; Subject 8/L-J
  Response Status: PR (Partial Response (PR): 50% or greater reduction in tumor volume.)
  Time to Response (Week): 4 Week
Head and Neck Cancer; Subject 9/J-T
  Time to Response (Week): 7 Week
Head and Neck Cancer; Subject 9/J-T, segmented treatment
  Response Status: PR** (Partial Response (PR): 50% or greater reduction in tumor volume.)
Head and Neck Cancer; Subject No. 1, 3 and 4, of 9 subjects
  subjects with a complete response: Three
Head and Neck Cancer; Subject No. 2, 6, 8 and 9, of 9 subjects
  subjects with a partial response: four
Head and Neck Cancer; Subject No. 5 and 7, of 9 subjects
  subjects with no response: two
Head and Neck Cancer; Summary, 9 patients, 9 lesions
  Tumor Response CR %: 33%
  Tumor Response NR %: 22%
  Tumor Response PR %: 44%
Head and Neck Cancer; due to progressive disease or complications unrelated to study treatment (Subject No. 2, 5 and 7)
  subjects who died prior to reaching week 12: Three
[1]; [4]
  Tumor Response CR %: 94%
  Tumor Response NR %: 0%
  Tumor Response PR %: 9%
[1]; [5]
  Tumor Response CR %: 100%
  Tumor Response NR %: 0%
  Tumor Response PR %: 0%
[1]; [6]
  Tumor Response CR %: 91%
  Tumor Response NR %: 2%
  Tumor Response PR %: 9%
[1]; [7]
  Tumor Response CR %: 0%
  Tumor Response NR %: 0%
  Tumor Response PR %: 100%
[1]; [8]
  Tumor Response CR %: 89%
  Tumor Response NR %: 1%
  Tumor Response PR %: 10%
[1]; [9]
  Tumor Response CR %: 17%
  Tumor Response NR %: 0%
  Tumor Response PR %: 83%
[1]; [10]
  Tumor Response CR %: 100%
  Tumor Response NR %: 0%
  Tumor Response PR %: 0%
[1]; [11]
  Tumor Response CR %: 30%
  Tumor Response NR %: 50%
  Tumor Response PR %: 20%
[1]; [12]
  Tumor Response CR %: 67%
  Tumor Response NR %: 0%
  Tumor Response PR %: 33%
[1]; [13]
  Tumor Response CR %: 67%
  Tumor Response NR %: 0%
  Tumor Response PR %: 33%

B1: neocarcinostatin (protein, UniProt P0A3R9 35-147, looked up)
Neocarzinostatin: AAPTATVTPSSGLSDGTVVKVAGAGLQAGTAYDVGQCAWVDTGVLACNPADFSSVTADANGSASTSLTVRRSFEGFLFDGTRWGTVDCTTAACQVGLSDAAGNGPEGVAISFN
Panc-3; comparison of FIGS. 11a and 11b
  post-pulse versus pre-pulse administration: more effective than pre-pulse administration
Panc-3; post-pulse injection, day 13, mice ID 1, 2, 4 and 7 of 7, appeared to be due to edema
  final vs initial tumor volume: an increase in tumor volume was observed
Panc-3; post-pulse injection, day 23, separate group of 5 mice
  tumor volume: all mice showed a marked reduction in tumor volume
Panc-3; pre-pulse dosing
  reduction of tumor size: not effective in reducing tumor size at all
